# Test results taken from PMC6669827 (Toxins, 2019).
# Several values for one entry are separate records, joined by “and”; a condition that tells them apart may be missing. Equal values may be shown once. Entries after “also recorded” stand apart in the source; their conditions may differ.
# Assays:
# human α7 nAChR = molecular target: T1, human α7 nAChR (Homo sapiens, UniProt P36544); format: cell-based
# T1 construct: expressed in transfected cells; host or cells: Xenopus laevis oocytes injected with cRNA (55.8 ng per oocyte); the cDNA clone was a gift of Dr. J. Michael McIntosh, University of Utah
# T1 sequence (P36544 23-502): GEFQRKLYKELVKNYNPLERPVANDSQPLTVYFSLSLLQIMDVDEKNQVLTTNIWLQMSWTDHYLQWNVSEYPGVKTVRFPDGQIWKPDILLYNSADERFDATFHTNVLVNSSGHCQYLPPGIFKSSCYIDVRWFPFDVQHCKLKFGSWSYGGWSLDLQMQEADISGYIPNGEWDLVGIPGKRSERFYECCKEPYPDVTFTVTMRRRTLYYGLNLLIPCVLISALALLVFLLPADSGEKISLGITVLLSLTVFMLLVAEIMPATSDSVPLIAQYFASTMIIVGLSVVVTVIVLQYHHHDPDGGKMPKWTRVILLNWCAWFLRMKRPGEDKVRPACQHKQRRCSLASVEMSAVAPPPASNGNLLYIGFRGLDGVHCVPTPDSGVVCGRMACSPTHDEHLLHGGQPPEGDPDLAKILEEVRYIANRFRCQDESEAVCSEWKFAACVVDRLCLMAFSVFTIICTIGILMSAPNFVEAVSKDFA
# human α3β2 nAChR = format: cell-based
substance,measurement,setting,value
αD-PiXXA [F7-3],reversibility of the effect of purified peptide on hα7 nAChR (in words),human α7 nAChR,slowly reversible; also recorded: very slowly reversible
same,selectivity hα7 over hα3β2 (in words),human α7 nAChR,selective for hα7 nAChRs
same,"time to return to the initial activity after starting the washout, hα7 nAChR",human α7 nAChR,21 min and ~ 21 min
same,IC50,human α7 nAChR; read-out: half-maximal inhibitory concentration (IC50) on hα7 nAChRs,6.2 µM
same,inhibition of the ACh-induced response on hα3β2 nAChRs by purified peptide,human α3β2 nAChR,6.7 ± 3.1%
same,effect on hα3β2 nAChRs (in words),human α3β2 nAChR; 6.5 μM,did not significantly affect
